Measured values taken from BindingDB's records for patent US8703811 (Genzyme, 2014).

Assays:
[1] = target: T1, Dihydroorotate dehydrogenase (fumarate) (Saccharomyces cerevisiae (strain ATCC 204508 / S288c), UniProt P28272); assay: Enzymatic Assays
T1 sequence (P28272 whole entry): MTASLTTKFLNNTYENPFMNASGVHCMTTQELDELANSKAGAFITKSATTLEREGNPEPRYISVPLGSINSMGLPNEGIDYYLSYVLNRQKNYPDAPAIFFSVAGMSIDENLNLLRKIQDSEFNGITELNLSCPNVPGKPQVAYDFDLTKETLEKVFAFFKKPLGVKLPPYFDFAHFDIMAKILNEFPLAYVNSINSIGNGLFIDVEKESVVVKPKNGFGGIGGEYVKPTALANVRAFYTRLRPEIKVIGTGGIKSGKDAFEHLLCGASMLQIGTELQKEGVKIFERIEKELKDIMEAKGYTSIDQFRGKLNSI
Description: (§1) Type 2 DHODH activity was monitored with either the direct assay measuring the formation of orotate or via a chromogen reduction assay using DCIP. Although the extinction coefficient and absorption wavelength are preferable for the chromogen reduction assay, the inorganic electron acceptor DCIP can be utilized by DHODH as the final electron acceptor in lieu of CoQn when the endogenous substrate is at a low concentration. As such, the direct assay was used to measure the binding affinity of pfDHODH to CoQD and L-DHO. The enzymatic reaction was performed by varying the L-DHO concentration (1-400 μM) or CoQD concentration (1-200 μM) while keeping the other substrate constant and in excess.

[2] = target: T2, Dihydroorotate dehydrogenase (quinone), mitochondrial [100-517] (Plasmodium berghei (strain Anka), UniProt A0A509AEH5); assay: Enzymatic Assays
T2 construct: 100-517
T2 sequence (A0A509AEH5 whole entry): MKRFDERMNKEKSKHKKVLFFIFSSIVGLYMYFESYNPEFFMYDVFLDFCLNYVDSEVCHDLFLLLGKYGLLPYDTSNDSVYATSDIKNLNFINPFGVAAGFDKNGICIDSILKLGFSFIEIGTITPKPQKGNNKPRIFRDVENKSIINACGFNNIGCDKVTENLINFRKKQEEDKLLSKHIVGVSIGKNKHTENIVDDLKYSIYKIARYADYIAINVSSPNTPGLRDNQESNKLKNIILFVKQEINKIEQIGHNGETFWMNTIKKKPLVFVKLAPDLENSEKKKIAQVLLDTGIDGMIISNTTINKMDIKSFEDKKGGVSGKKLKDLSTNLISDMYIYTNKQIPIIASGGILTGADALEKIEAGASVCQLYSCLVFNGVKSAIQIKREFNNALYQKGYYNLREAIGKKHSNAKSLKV
Description: as §1

SMILES	IC50 [1] [µM]	IC50 [2] [µM]
Cc1ccccc1/C=C/c1cc(O)c2ccccc2n1 [US8703811, 2]	> 10	–
Fc1cc(I)ccc1Nc1ccnc2cc(Cl)ccc12 [US8703811, 4]	–	> 10
